Experimental data from patent US9796760B2, “Modified peptide, CB receptor ligand, kit in vitro process for evaluating CB receptor bonds, uses, pharmaceutical composition for modulating CB receptor activity” (Proteimax Biotecnologia Ltda, priority 2012, dated 2017).
Entries after “also recorded” stand apart in the source; their conditions may differ. No end group written: not given here.

Experiments:
[1] = Activity on oral administration (statement, no separate method); assay type: in vivo, mammalian
CB1 receptor [2] = experiment: ELISA with striate membranes and anti-CB1 antibody, receptor activating percentage vs non-treated membrane; assay type: biochemical; settings: 2 hours; for activity regarding the CB1 (receptor activating percentage regarding control): striate membranes 5 μg/pool, 1 μM of each drug, ambient temperature, variants compared with SeqID:1
Protocol: (§1) The receptor activating percentage was calculated regarding the control, non-treated membrane (100%). […] Significant differences are indicated and p<0.05.

[3] = prior art statement; cited from earlier work
[4] = Test in brown adipose tissue, 3 days oral treatment; assay type: in vivo, Thin wistar rats
Protocol: (§2) Furthermore, in a treatment acute model (3 days of treatment orally in non-obese wistar rats) it was verified the brown adipose tissue activation, the retroperitoneal, inguinal and brown adipose tissues reduction, as well the adiposity ratio (FIGS. 4 to 9), effects not observed with Rimonabant.
The measure of the adipose tissue was performed after finishing the treatment. The results are expressed by the brown adipose tissue weight measured at the treatment end (scale of g/100 g). Rats administered with vehicle (saline) were subject to the same protocol (control).

[5] = Test in inguinal adipose tissue, 3 days oral treatment; assay type: in vivo, Thin wistar rats; settings: 100 ug/Kg, 3 days orally, vs Rimonabant and/or saline groups
Protocol: as §2
The measure of the adipose tissue was performed after finishing the treatment. The results are expressed by the inguinal adipose tissue weight measured at the treatment end (scale of g/100 g). Rats administered with vehicle (saline) were subject to the same protocol (control).

[6] = Test in retroperitoneal adipose tissue, 3 days oral treatment; assay type: in vivo, Thin wistar rats; settings: 100 ug/Kg, 3 days orally, vs Rimonabant and/or saline groups
Protocol: as §2
The measure of the adipose tissue was performed after finishing the treatment. The results are expressed by the retroperitoneal adipose tissue weight measured for treatment purpose (scale of g/100 g). Rats administered with vehicle (saline) were subject to the same protocol (control).

[7] = Adiposity ratio determination, 3 days oral treatment; assay type: in vivo, Thin wistar rats; settings: 100 ug/Kg, 3 days orally, vs Rimonabant and/or saline groups
Protocol: as §2
Thin wistar rats were treated with a Rimonabant dosage (100 ug/Kg) or peptide 19 (Pep 19 100 ug/Kg) during 3 days orally. The measure of the adiposity ratio was performed after finishing the treatment using the formula (%), (I=Σ fat deposits/body weight×100). The results are expressed by the animal weight measured at the treatment end (scale of g/100 g). Rats administered with vehicle (saline) were subject to the same protocol (control).

[8] = Glucose in animals supplemented with 20% sucrose, 30 days-treatment; assay type: in vivo, Winstar rats; settings: Rimonabant (positive control, dose not given), 15th and 30th days of treatment
Protocol: (§3) Winstar rats fed with standard regimen supplemented with 20% sucrose were used in the drinking water during 60 days before and during the 30 days-treatment with SALINE (negative control), Rimonabant (positive control), Peptide 19 (Pep 19) in the concentration of 50 μg/Kg and Peptide 19 (Pep 19) in the concentration of 100 μg/Kg.

[9] = Cholesterol in animals supplemented with 20% sucrose, 30 days-treatment; assay type: in vivo, Wistar rats; settings: Rimonabant (positive control, dose not given), after 30 days-treatment
Protocol: as §3, with “Wistar” for “Winstar”

CB1 receptor [10] = target: CB1 receptor (Homo sapiens, UniProt P21554); settings: disclosed in WO 2011/011847; cited from earlier work
[11] = Pain test: carrageenan-induced hyperalgesia, intraplantar administration; assay type: in vivo, Rats; settings: 20 g by leg, immediately before carrageenan 200 g by leg, 0 h and 3 h
Protocol: It was performed the comparative analysis of the peptide intraplantar administration over the carrageenan-induced hyperalgesia. Rats were treated with peptide ([…]) immediately before the carrageenan intraplantar administration ([…]) and were evaluated using a pressure apparatus […] (0 h and empty legs) and 3 h after administration of carrageenan (black legs).

CB2 receptor = experiment: ELISA with striate membranes for CB2 receptor, receptor activating percentage vs non-treated membrane; assay type: biochemical; settings: striate membranes 5 μg/pool, 1 μM of each drug, 2 hours, ambient temperature
Protocol: as §1

[12] = Depression model (forced swim); assay type: in vivo; settings: rats
Protocol: The forced swim test was performed based on the previous tests ([Harkin et al., 2004], [Petit-Demouliere et al., 2005] and [Treit and Menard, 1998]).

CB1 receptor (Homo sapiens, UniProt P21554), sequence (P21554 whole entry): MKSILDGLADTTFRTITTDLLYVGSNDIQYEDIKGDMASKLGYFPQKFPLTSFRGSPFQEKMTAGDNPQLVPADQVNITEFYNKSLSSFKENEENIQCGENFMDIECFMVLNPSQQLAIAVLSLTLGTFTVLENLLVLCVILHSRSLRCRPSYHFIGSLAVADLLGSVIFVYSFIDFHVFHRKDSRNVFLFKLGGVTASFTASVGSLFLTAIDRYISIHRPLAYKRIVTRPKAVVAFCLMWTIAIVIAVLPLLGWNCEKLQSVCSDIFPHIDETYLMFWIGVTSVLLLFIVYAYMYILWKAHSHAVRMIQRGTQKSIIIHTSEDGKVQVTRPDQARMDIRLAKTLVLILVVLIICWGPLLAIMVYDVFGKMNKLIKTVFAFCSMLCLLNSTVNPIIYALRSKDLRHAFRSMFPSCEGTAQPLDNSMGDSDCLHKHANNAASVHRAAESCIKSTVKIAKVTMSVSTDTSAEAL

Cyclic Peptide -Asp-Ile-Ile-Ala-Asp-Asp-Glu-Pro-Leu-Thr- (DIIADDEPLT; cyclic; Artificial cyclic peptide modulator of cannabinoid receptors) [Modified peptide 6]
activity when administered orally [1]: has activity even when orally administered

DIIADDAPLT [Modified peptide 3]
activity when administered orally [1]: has activity even when orally administered
activity regarding the CB1 (receptor activating percentage regarding control) (CB1 receptor [2]; listed as SeqID:3): smaller activity

Cc1c(C(=O)NN2CCCCC2)nn(-c2ccc(Cl)cc2Cl)c1-c1ccc(Cl)cc1 [Rimonabant]
crossing the hematoencephalic barrier [3]: crossing the hematoencenphalic layer
brown adipose tissue mass ([4]; 100 ug/Kg, 3 days orally, vs Rimonabant and/or saline groups): not observed
brown adipose tissue activation ([4]; 3 days of treatment orally in non-obese wistar rats): not observed
inguinal adipose tissue mass [5]: not observed
retroperitoneal adipose tissue mass [6]: not observed
adiposity ratio [7]: not observed
glycaemia [8]: lower glycaemia
cholesterol in % from SALINE animals [9]: lower cholesterol percentages

DIIADDEALT [Modified peptide 5]
activity when administered orally [1]: has activity even when orally administered
activity in CB1 / endocannabinoid receptors in high dosages (CB1 receptor [2]; different dosages of drug, high dosages, listed as SeqID:5): agonist activity
activity in CB1 / endocannabinoid receptors in low dosages (CB1 receptor [2]; different dosages of drug, low dosages, listed as SeqID:5): activity inverse agonist

DIIADDE [Modified peptide 4]
activity when administered orally [1]: has activity even when orally administered
activity regarding the CB1 (receptor activating percentage regarding control) (CB1 receptor [2]; listed as SeqID:4): improved inverse agonist activity

CC(C)C[C@H](NC(=O)[C@H](Cc1ccccc1)NC(=O)[C@H](CCCCN)NC(=O)[C@H](Cc1ccccc1)NC(=O)[C@H](CC(N)=O)NC(=O)[C@@H](NC(=O)[C@@H]1CCCN1)C(C)C)C(=O)N[C@@H](CO)C(=O)N[C@@H](Cc1cnc[nH]1)C(=O)O [hemopressin]
crossing the hematoencephalic barrier [3]: does not cross the hematoencephalic barrier
binding to the CB1 receptor (CB1 receptor [10]): binding efficiently
antihyperalgesic activity [11]: antihyperalgesic activity

DILADDEPLT [Modified peptide 2]
activity in CB2 (receptor activating percentage regarding control) (CB2 receptor; listed as SeqID:2): inverse agonist
activity when administered orally [1]: has activity even when administered orally

DIIADDEPLT [Modified peptide 1, Asp-Ile-Ile-Ala-Asp-Asp-Glu-Pro-Leu-Thr]
depression in forced swim test (immobility time) [12]: does not cause depression

third amino acid of the SeqID:1 (isoleucine amino acid) was replaced for threonine: sequence wherein the third amino acid of the SeqID:1 (isoleucine) was replaced for threonine (DITADDEPLT; Artificial peptide modulator of cannabinoid receptors)
activity in CB2 (receptor activating percentage regarding control) (CB2 receptor): have not demonstrated activity detectable
activity regarding the CB1 (receptor activating percentage regarding control) (CB1 receptor [2]): biological activity loss; also recorded: have not demonstrated activity detectable
